From article PMC3820767, “Turning Defense into Offense: Defensin Mimetics as Novel Antibiotics Targeting Lipid II” (PLoS Pathogens, 2013)
Where two headings read alike, the source gives them in different places.

Legend:
Caco-2 = assay: Cytotoxicity by MTT assay; assay type: cell-based, human
[1] = Surface Plasmon Resonance binding to immobilized 3-Lipid II; conditions: Table S3; SPR, initial determination at 10 µM
Description: Surface Plasmon Resonance binding experiments were carried out on a BIAcore T100 system (BIAcore Inc., Piscataway, NY) at 25°C. The assay buffer was 10 mM HEPES, 150 mM NaCl, 0.05% surfactant P20, pH 7.4 (±3 mM EDTA) supplemented with 10% DMSO. […] For initial determination of binding, defensin mimetics were introduced into the flow-cells (30 µl/min) in the running buffer at 10 µM. Resonance signals were corrected for nonspecific binding by subtracting the background of the control flow-cell. After each analysis, the sensor chip surfaces were regenerated with 50 mM NaOH for 30 s at a flow rate 100 µl/min, and equilibrated with the buffer prior to next injection. For binding kinetics studies, binding isotherms were analyzed with manufacturer-supplied software for BIAcore T100.

[2] = test system: Escherichia coli ATCC 25922; assay: Antibacterial killing, 96-well turbidimetric (modified vCC) assay; assay type: cell-based; conditions: Table S3; concentration at which 100% killing occurred, no bacterial regrowth; No = not active
Description: (§1) The antibacterial activity of defensin mimetics against Staphylococcus aureus ATCC 29213 and Escherichia coli 25922 was carried out in a 96-well turbidimetric assay essentially as described previously with the following modifications: bacteria were exposed for 30 min to compounds in 10 mM phosphate buffer containing 5% DMSO prior to addition of 2× Muller-Hinton medium. Bacterial growth was monitored for 12 hours and data were analyzed as described. Determination of MICs was performed by Micromyx, LLC (Kalamazoo, Michigan) according to CLSI standards.

[3] = test system: Staphylococcus aureus ATCC 29213; assay: as above; assay type: cell-based; conditions: Table S3; concentration at which 100% killing occurred, no bacterial regrowth; No = not active
Description: as §1

[4] = Table S3, No = not cytotoxic, read-out: cytotoxic for Caco II (C50% survival)

CC[n+]1c(/C=C/C=C/N(C(C)=O)c2ccccc2)sc2cc(OC)ccc21 [STK874226, 2-{(1E,3E)-4-[acetyl(phenyl)amino]buta-1,3-dien-1-yl}-3-ethyl-6-methoxy-1,3-benzothiazol-3-ium]
cytotoxic for Caco II (C50% survival) (Caco-2): No | Binding on Lipid II? [1]: No | active against E.coli (IC100%) [2]: 250 µM | active against S.aureus (IC100%) [3]: 125 µM

CN(C)c1ccc(C2C=C(c3ccccc3)Oc3ccccc32)cc1 (centres unmarked) [55870/1, N,N-dimethyl-4-(2-phenyl-4H-chromen-4-yl)aniline]
IC50 (Caco-2): 25.9 µM | Binding on Lipid II? [1]: Yes | active against E.coli (IC100%) [2]: No | active against S.aureus (IC100%) [3]: 250 µM

Cc1cc2c(cc1C)CSC(c1ccc(O)cc1)SC2 [Compound 2729-1114, 4-(7,8-dimethyl-3,5-dihydro-1H-2,4-benzodithiepin-3-yl)phenol]
IC50 (Caco-2; [4]): 119 µM | Binding on Lipid II? [1]: No | active against E.coli (IC100%) [2]: No | active against S.aureus (IC100%) [3]: No

CC(C)(C)c1csc(N2N=C(c3ccccc3)C(=NNc3ccccc3)C2=O)n1 [BAS00691248, 2-(4-tert-Butyl-thiazol-2-yl)-5-phenyl-4-(phenyl-hydrazono)-2,4-dihydro-pyrazol-3-one]
cytotoxic for Caco II (C50% survival) (Caco-2): No | Binding on Lipid II? [1]: No | active against E.coli (IC100%) [2]: No | active against S.aureus (IC100%) [3]: No

O=Cc1ccc2c(c1)C1c3ccccc3C2c2ccccc21 [Compound 5100004, pentacyclo[6.6.6.0^{2,7}.0^{9,14}.0^{15,20}]icosa-2,4,6,9,11,13,15,17,19-nonaene-4-carbaldehyde]
cytotoxic for Caco II (C50% survival) (Caco-2): No | Binding on Lipid II? [1]: No | active against E.coli (IC100%) [2]: No | active against S.aureus (IC100%) [3]: No

CN(C)c1ccc(C=CCN2CCN(Cc3ccccc3)CC2)cc1 [Compound 5429346, 4-[3-(4-benzyl-1-piperazinyl)-1-propen-1-yl]-N,N-dimethylaniline]
IC50 (Caco-2): 132 µM | Binding on Lipid II? [1]: Yes | active against E.coli (IC100%) [2]: No | active against S.aureus (IC100%) [3]: 500 µM

CC[n+]1c(/C=C/C=C2\N(C)c3ccccc3C2(C)C)sc2ccccc21.[O-][Cl+3]([O-])([O-])[O-] [Compound 5660386, 3-ethyl-2-[(1E)-3-[(2Z)-1,3,3-trimethyl-2,3-dihydro-1H-indol-2-ylidene]prop-1-en-1-yl]-1,3-benzothiazol-3-ium perchlorate]
IC50 (Caco-2; [4]): 5.6 µM | Binding on Lipid II? [1]: No | active against E.coli (IC100%) [2]: 125 µM | active against S.aureus (IC100%) [3]: 7,8 µM

OCc1ccc2c(c1)C1c3ccccc3C2c2ccccc21 [Compound 5100015, pentacyclo[6.6.6.0~2,7~.0~9,14~.0~15,20~]icosa-2,4,6,9,11,13,15,17,19-nonaen-4-ylmethanol]
IC50 (Caco-2): 68 µM | Binding on Lipid II? [1]: No | active against E.coli (IC100%) [2]: No | active against S.aureus (IC100%) [3]: 500 µM

CCCCN(CC#Cc1ccc(C#CCN(CCCC)CCCC)cc1)CCCC.Cl.Cl [Compound 5230313, 3,3'-(1,4-phenylene)bis(N,N-dibutyl-2-propyn-1-amine) dihydrochloride]
IC50 (Caco-2): 366 µM | Binding on Lipid II? [1]: Yes | active against E.coli (IC100%) [2]: No | active against S.aureus (IC100%) [3]: No

Fc1ccccc1CN1CCC(N2CCN(c3ccccc3)CC2)CC1 [Compound 5607-0206, 1-{1-[(2-fluorophenyl)methyl]piperidin-4-yl}-4-phenylpiperazine]
cytotoxic for Caco II (C50% survival) (Caco-2; Table S3, No = not cytotoxic): No | Binding on Lipid II? [1]: No | active against E.coli (IC100%) [2]: No | active against S.aureus (IC100%) [3]: No

CN(C)c1ccc(C=C2C=C(c3ccccc3)OC(c3ccccc3)=C2)cc1 [Compound 3377-0105, 4-[(2,6-diphenyl-4H-pyran-4-ylidene)methyl]-N,N-dimethylaniline]
IC50 (Caco-2): 100 µM | Binding on Lipid II? [1]: No | active against E.coli (IC100%) [2]: No | active against S.aureus (IC100%) [3]: 500 µM

Cc1cc(C2(c3ccc(O)c(C)c3)C(=O)N(Cc3ccccc3)c3ccccc32)ccc1O [Compound 5142587, 1-benzyl-3,3-bis(4-hydroxy-3-methylphenyl)-2,3-dihydro-1H-indol-2-one]
IC50 (Caco-2): 4.4 µM | Binding on Lipid II? [1]: No | active against E.coli (IC100%) [2]: No | active against S.aureus (IC100%) [3]: 15,625 µM

CCN1C(=CC(C)=Cc2sc3ccccc3[n+]2CC)Sc2ccccc21 [96932/4, 3-ethyl-2-(3-(3-ethyl-1,3-benzothiazol-2(3H)-ylidene)-2-methyl-1-propenyl)-1,3λ5-benzothiazole]
IC50 (Caco-2): 19 µM | Binding on Lipid II? [1]: No | active against E.coli (IC100%) [2]: 15.625 µM | active against S.aureus (IC100%) [3]: 15,6 µM

COc1ccc(-c2cn(CC(=O)N(c3ccccc3)C(C)C)c3[n+]2CCC3)cc1 [STL050072, 3-(4-methoxyphenyl)-1-{2-oxo-2-[phenyl(propan-2-yl)amino]ethyl}-1,5,6,7-tetrahydropyrrolo[1,2-a]imidazol-4-ium]
IC50 (Caco-2): 340 µM | Binding on Lipid II? [1]: No | active against E.coli (IC100%) [2]: No | active against S.aureus (IC100%) [3]: No

COc1ccc(C=C[c+]2cc(-c3ccccc3)cc(-c3ccccc3)o2)cc1 [BAS00138032, 2-[2-(4-Methoxy-phenyl)-vinyl]-4,6-diphenyl-pyranylium]
cytotoxic for Caco II (C50% survival) (Caco-2): No | Binding on Lipid II? [1]: No | active against E.coli (IC100%) [2]: No | active against S.aureus (IC100%) [3]: No

CCN(CC)CCCN1CN(CCCN(CC)CC)CN(CCCN(CC)CC)C1 [Compound 000A-0859, (3-{3,5-bis[3-(diethylamino)propyl]-1,3,5-triazinan-1-yl}propyl)diethylamine]
IC50 (Caco-2): 419 µM | Binding on Lipid II? [1]: Yes | active against E.coli (IC100%) [2]: 500 µM | active against S.aureus (IC100%) [3]: 500 µM

OCCSc1ccc(-c2ccc(SCCO)cc2)cc1 [Compound 5230234, 2,2'-[4,4'-biphenyldiylbis(thio)]diethanol]
cytotoxic for Caco II (C50% survival) (Caco-2; Table S3, No = not cytotoxic): No | Binding on Lipid II? [1]: No | active against E.coli (IC100%) [2]: No | active against S.aureus (IC100%) [3]: No

Oc1ccc(O)c2c1C1c3ccccc3C2c2ccccc21 [Compound 5190620, pentacyclo[6.6.6.0^{2,7}.0^{9,14}.0^{15,20}]icosa-2(7),3,5,9,11,13,15,17,19-nonaene-3,6-diol]
IC50 (Caco-2): 3.7 µM | Binding on Lipid II? [1]: No | active against E.coli (IC100%) [2]: No | active against S.aureus (IC100%) [3]: 62,5 µM

OCCSc1ccc(Cc2ccc(SCCO)cc2)cc1 [Compound 5210734, 2,2'-[methylenebis(4,1-phenylenethio)]diethanol]
cytotoxic for Caco II (C50% survival) (Caco-2): No | Binding on Lipid II? [1]: No | active against E.coli (IC100%) [2]: No | active against S.aureus (IC100%) [3]: No

FC(F)(F)c1cccc(N2CCN(CCc3ccccc3)CC2)c1 [Compound 5422765, 1-(2-phenylethyl)-4-[3-(trifluoromethyl)phenyl]piperazine]
IC50 (Caco-2): 130 µM | Binding on Lipid II? [1]: Yes | active against E.coli (IC100%) [2]: No | active against S.aureus (IC100%) [3]: No

CC(CCc1ccc(O)cc1)NCCc1ccccc1 (centres unmarked) [Compound 5460400, 4-{3-[(2-phenylethyl)amino]butyl}phenol]
cytotoxic for Caco II (C50% survival) (Caco-2; Table S3, No = not cytotoxic): No | Binding on Lipid II? [1]: No | active against E.coli (IC100%) [2]: No | active against S.aureus (IC100%) [3]: No

Fc1ccc(N2CCN(Cc3ccc(-c4ccccc4)cc3)CC2)cc1 [Compound 5267798, 1-(4-biphenylylmethyl)-4-(4-fluorophenyl)piperazine]
cytotoxic for Caco II (C50% survival) (Caco-2): No | Binding on Lipid II? [1]: No | active against E.coli (IC100%) [2]: No | active against S.aureus (IC100%) [3]: No

Cc1ccc(CN2CCC(N3CCN(c4ccccc4F)CC3)CC2)cc1 [Compound 6711103, 1-(2-fluorophenyl)-4-[1-(4-methylbenzyl)-4-piperidinyl]piperazine]
cytotoxic for Caco II (C50% survival) (Caco-2): No | Binding on Lipid II? [1]: No | active against E.coli (IC100%) [2]: No | active against S.aureus (IC100%) [3]: No
